Reference: patent publication US11020398B2, “Amino-pyrrolopyrimidinone compounds and methods of use thereof” (ArQule, Inc., priority 2016, dated 2021)

Target: phosphorylated form of full length BTK (active BTK) (Homo sapiens (Human), UniProt Q06187)
Assay: Mobility shift assay (MSA, Caliper LabChip), active BTK assay
Format: biochemical
Conditions: Assay type B (MSA using active BTK)
Method: The active BTK assay consists of phosphorylated form of full length BTK. […] The enzyme inhibitor complexes is incubated, before the kinase activation reaction is initiated.
Mobility Shift Assay (MSA)
The active BTK assay consisted of phosphorylated form of full length BTK. […] The enzyme inhibitor complexes was incubated for 30 minutes at the room temperature and the kinase activation reaction was initiated by the addition of 1 μM Srctide peptide substrate and […].

Sequence of phosphorylated form of full length BTK (active BTK) (Q06187 whole entry): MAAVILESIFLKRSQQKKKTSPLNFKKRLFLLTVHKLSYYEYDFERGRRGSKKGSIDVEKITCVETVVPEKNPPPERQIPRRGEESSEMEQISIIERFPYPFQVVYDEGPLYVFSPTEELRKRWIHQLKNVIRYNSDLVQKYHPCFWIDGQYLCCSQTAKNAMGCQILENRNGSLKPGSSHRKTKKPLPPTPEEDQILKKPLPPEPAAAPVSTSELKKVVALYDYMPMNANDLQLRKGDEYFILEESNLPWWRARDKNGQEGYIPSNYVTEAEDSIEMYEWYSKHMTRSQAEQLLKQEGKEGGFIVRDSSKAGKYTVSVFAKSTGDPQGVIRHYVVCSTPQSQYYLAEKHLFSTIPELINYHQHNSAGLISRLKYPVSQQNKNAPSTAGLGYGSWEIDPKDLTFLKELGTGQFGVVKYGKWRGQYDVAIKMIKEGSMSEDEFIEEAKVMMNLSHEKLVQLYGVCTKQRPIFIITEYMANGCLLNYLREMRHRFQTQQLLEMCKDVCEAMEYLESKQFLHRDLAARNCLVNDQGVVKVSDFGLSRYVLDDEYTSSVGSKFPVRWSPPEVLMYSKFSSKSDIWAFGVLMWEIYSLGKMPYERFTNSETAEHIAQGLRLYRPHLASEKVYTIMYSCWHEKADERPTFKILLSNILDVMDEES

| IC50 [nM] | SMILES |
| --- | --- |
| 1.7 | CN(C)C[C@]1(O)CC[C@H](Nc2ncnc3[nH]cc(C(=O)c4ccc(Oc5ccccc5)cc4Cl)c23)CC1 [Compound I-177, (2-chloro-4-phenoxyphenyl)(4-((trans-4-((dimethylamino)methyl)-4-hydroxycyclohexyl)amino)-7H-pyrrolo[2,3-d]pyrimidin-5-yl)methanone] |
| 2.2 | CN(C)C[C@]1(O)CC[C@@H](Nc2ncnc3[nH]cc(C(=O)c4ccc(Oc5ccccc5)cc4Cl)c23)CC1 [Compound I-178, (2-chloro-4-phenoxyphenyl)(4-((cis-4-((dimethylamino)methyl)-4-hydroxycyclohexyl)amino)-7H-pyrrolo[2,3-d]pyrimidin-5-yl)methanone] |
| 0.98 | CN(C)CC(=O)N[C@H]1CC[C@@H](Nc2ncnc3[nH]cc(C(=O)c4ccc(Oc5ccccc5)cc4Cl)c23)CC1 [Compound I-181, N-(cis-4-((5-(2-chloro-4-phenoxybenzoyl)-7H-pyrrolo[2,3-d]pyrimidin-4-yl)amino)cyclohexyl)-2-(dimethylamino)acetamide] |
| 1.5 | C[C@@H](O)[C@@H]1CC[C@@H](Nc2ncnc3[nH]cc(C(=O)c4ccc(Oc5cccc(F)c5)cc4Cl)c23)CO1 [Compound I-182, (2-chloro-4-(3-fluorophenoxy)phenyl)(4-(((3R,6S)-6-((R)-1-hydroxyethyl)tetrahydro-2H-pyran-3-yl)amino)-7H-pyrrolo[2,3-d]pyrimidin-5-yl)methanone] |
| 2.2 | C[C@@H](O)[C@@H]1CC[C@@H](Nc2ncnc3[nH]cc(C(=O)c4ccc(Oc5cccc(Cl)c5)cc4Cl)c23)CO1 [Compound I-183, (2-chloro-4-(3-chlorophenoxy)phenyl)(4-(((3R,6S)-6-((R)-1-hydroxyethyl)tetrahydro-2H-pyran-3-yl)amino)-7H-pyrrolo[2,3-d]pyrimidin-5-yl)methanone] |
| 61 | CC(C)(C)OC(=O)N[C@H]1CC[C@H](Nc2ncnc3[nH]cc(C(=O)c4ccc(Oc5ccccc5)cc4)c23)C1 [Compound I-184, tert-butyl ((1S,3S)-3-((5-(4-phenoxybenzoyl)-7H-pyrrolo[2,3-d]pyrimidin-4-yl)amino)cyclopentyl)carbamate] |
| 57 | CC(C)(C)OC(=O)N[C@H]1C[C@H](Nc2ncnc3[nH]cc(C(=O)c4ccc(Oc5ccccc5)cc4)c23)C1 [Compound I-185, tert-butyl (trans-3-((5-(4-phenoxybenzoyl)-7H-pyrrolo[2,3-d]pyrimidin-4-yl)amino)cyclobutyl)carbamate] |
| 12 | CC(C)(C)OC(=O)N[C@H]1C[C@@H](Nc2ncnc3[nH]cc(C(=O)c4ccc(Oc5ccccc5)cc4)c23)C1 [Compound I-186, tert-butyl (cis-3-((5-(4-phenoxybenzoyl)-7H-pyrrolo[2,3-d]pyrimidin-4-yl)amino)cyclobutyl)carbamate] |
| 4.2 | O=C(c1ccc(Oc2ccccc2)cc1)c1c[nH]c2ncnc(N[C@H]3C[C@H](CO)C3)c12 [Compound I-187, (4-((trans-3-(hydroxymethyl)cyclobutyl)amino)-7H-pyrrolo[2,3-d]pyrimidin-5-yl)(4-phenoxyphenyl)methanone] |
| 1.7 | CC(C)(O)[C@@H]1CC[C@@H](Nc2ncnc3[nH]cc(C(=O)c4ccc(Oc5ccccc5)cc4Cl)c23)CO1 [Compound I-188, (2-chloro-4-phenoxyphenyl)(4-(((3R,6S)-6-(2-hydroxypropan-2-yl)tetrahydro-2H-pyran-3-yl)amino)-7H-pyrrolo[2,3-d]pyrimidin-5-yl)methanone] |
| 17 | N[C@@H]1CC[C@@H](Nc2ncnc3[nH]cc(C(=O)c4ccc(Oc5ccccc5)cc4)c23)C1 [Compound I-189, (4-(((1R,3R)-3-aminocyclopentyl)amino)-7H-pyrrolo[2,3-d]pyrimidin-5-yl)(4-phenoxyphenyl)methanone] |
| 17 | N[C@H]1C[C@@H](Nc2ncnc3[nH]cc(C(=O)c4ccc(Oc5ccccc5)cc4)c23)C1 [Compound I-190, (4-((cis-3-aminocyclobutyl)amino)-7H-pyrrolo[2,3-d]pyrimidin-5-yl)(4-phenoxyphenyl)methanone] |
| 37 | N[C@H]1C[C@H](Nc2ncnc3[nH]cc(C(=O)c4ccc(Oc5ccccc5)cc4)c23)C1 [Compound I-191, (4-((trans-3-aminocyclobutyl)amino)-7H-pyrrolo[2,3-d]pyrimidin-5-yl)(4-phenoxyphenyl)methanone] |
| 4.4 | CC(=O)N[C@@H]1CC[C@@H](Nc2ncnc3[nH]cc(C(=O)c4ccc(Oc5ccccc5)cc4)c23)C1 [Compound I-192, N-((1R,3R)-3-((5-(4-phenoxybenzoyl)-7H-pyrrolo[2,3-d]pyrimidin-4-yl)amino)cyclopentyl)acetamide] |
| 1.2 | C[C@H](O)C(=O)N[C@H]1CC[C@@H](Nc2ncnc3[nH]cc(C(=O)c4ccc(Oc5ccccc5)cc4Cl)c23)CC1 [Compound I-193, (S)—N-(cis-4-((5-(2-chloro-4-phenoxybenzoyl)-7H-pyrrolo[2,3-d]pyrimidin-4-yl)amino)cyclohexyl)-2-hydroxypropanamide] |
| 1.5 | CC(C)(O)C(=O)N[C@H]1CC[C@@H](Nc2ncnc3[nH]cc(C(=O)c4ccc(Oc5ccccc5)cc4Cl)c23)CC1 [Compound I-194, N-(cis-4-((5-(2-chloro-4-phenoxybenzoyl)-7H-pyrrolo[2,3-d]pyrimidin-4-yl)amino)cyclohexyl)-2-hydroxy-2-methylpropanamide] |
| 2.2 | CC(=O)N[C@H](C)[C@@H]1CC[C@@H](Nc2ncnc3[nH]cc(C(=O)c4ccc(Oc5ccccc5)cc4Cl)c23)CO1 [Compound I-195, N—((R)-1-((2S,5R)-5-((5-(2-chloro-4-phenoxybenzoyl)-7H-pyrrolo[2,3-d]pyrimidin-4-yl)amino)tetrahydro-2H-pyran-2-yl)ethyl)acetamide] |
| 3.2 | CC(=O)N[C@H]1C[C@@H](Nc2ncnc3[nH]cc(C(=O)c4ccc(Oc5ccccc5)cc4)c23)C1 [Compound I-196, N-(cis-3-((5-(4-phenoxybenzoyl)-7H-pyrrolo[2,3-d]pyrimidin-4-yl)amino)cyclobutyl)acetamide] |
| 1.6 | Cc1cc(Oc2ccccc2)ccc1C(=O)c1c[nH]c2ncnc(N[C@@H]3CC[C@@H]([C@@H](C)O)OC3)c12 [Compound I-197, (4-(((3R,6S)-6-((R)-1-hydroxyethyl)tetrahydro-2H-pyran-3-yl)amino)-7H-pyrrolo[2,3-d]pyrimidin-5-yl)(2-methyl-4-phenoxyphenyl)methanone] |
| 2.6 | CC(=O)N[C@@H](C)[C@@H]1CC[C@@H](Nc2ncnc3[nH]cc(C(=O)c4ccc(Oc5ccccc5)cc4)c23)CO1 [Compound I-198, N-((S)-1-((2S,5R)-5-((5-(4-phenoxybenzoyl)-7H-pyrrolo[2,3-d]pyrimidin-4-yl)amino)tetrahydro-2H-pyran-2-yl)ethyl)acetamide] |
| 6.8 | CC(=O)N[C@H]1C[C@H](Nc2ncnc3[nH]cc(C(=O)c4ccc(Oc5ccccc5)cc4)c23)C1 [Compound I-199, N-(trans-3-((5-(4-phenoxybenzoyl)-7H-pyrrolo[2,3-d]pyrimidin-4-yl)amino)cyclobutyl)acetamide] |
| 1.4 | C[C@]1(O)CC[C@@H](Nc2ncnc3[nH]cc(C(=O)c4ccc(Oc5ccccc5)cc4Cl)c23)CC1 [Compound I-200, (2-chloro-4-phenoxyphenyl)(4-((cis-4-hydroxy-4-methylcyclohexyl)amino)-7H-pyrrolo[2,3-d]pyrimidin-5-yl)methanone] |
| 1.5 | C[C@]1(O)CC[C@H](Nc2ncnc3[nH]cc(C(=O)c4ccc(Oc5ccccc5)cc4Cl)c23)CC1 [Compound I-201, (2-chloro-4-phenoxyphenyl)(4-((trans-4-hydroxy-4-methylcyclohexyl)amino)-7H-pyrrolo[2,3-d]pyrimidin-5-yl)methanone] |
| 1 | C[C@H](O)C(=O)N[C@H]1CC[C@@H](Nc2ncnc3[nH]cc(C(=O)c4ccc(Oc5ccccc5)cc4)c23)CC1 [Compound I-202, (S)-2-hydroxy-N-(cis-4-((5-(4-phenoxybenzoyl)-7H-pyrrolo[2,3-d]pyrimidin-4-yl)amino)cyclohexyl)propanamide] |
| 1.4 | CC(C)(O)C(=O)N[C@H]1CC[C@@H](Nc2ncnc3[nH]cc(C(=O)c4ccc(Oc5ccccc5)cc4)c23)CC1 [Compound I-203, 2-hydroxy-2-methyl-N-(cis-4-((5-(4-phenoxybenzoyl)-7H-pyrrolo[2,3-d]pyrimidin-4-yl)amino)cyclohexyl)propanamide] |
| 1.1 | CC(=O)N[C@@H](C)[C@@H]1CC[C@@H](Nc2ncnc3[nH]cc(C(=O)c4ccc(Oc5ccccc5)cc4C)c23)CO1 [Compound I-204, N-((S)-1-((2S,5R)-5-((5-(2-methyl-4-phenoxybenzoyl)-7H-pyrrolo[2,3-d]pyrimidin-4-yl)amino)tetrahydro-2H-pyran-2-yl)ethyl)acetamide] |
| 1.6 | CC(=O)NC[C@@H]1CC[C@@H](Nc2ncnc3[nH]cc(C(=O)c4ccc(Oc5ccccc5)cc4)c23)CO1 [Compound I-205, N-(((2S,5R)-5-((5-(4-phenoxybenzoyl)-7H-pyrrolo[2,3-d]pyrimidin-4-yl)amino)tetrahydro-2H-pyran-2-yl)methyl)acetamide] |
| 1.8 | C[C@@H](O)C(=O)N[C@H]1CC[C@@H](Nc2ncnc3[nH]cc(C(=O)c4ccc(Oc5ccccc5)cc4)c23)CC1 [Compound I-206, (R)-2-hydroxy-N-(cis-4-((5-(4-phenoxybenzoyl)-7H-pyrrolo[2,3-d]pyrimidin-4-yl)amino)cyclohexyl)propanamide] |
| 4.1 | O=C(c1ccc(Oc2ccccc2)cc1Cl)c1c[nH]c2ncnc(N[C@H]3C[C@H](CO)C3)c12 [Compound I-207, (2-chloro-4-phenoxyphenyl)(4-((trans-3-(hydroxymethyl)cyclobutyl)amino)-7H-pyrrolo[2,3-d]pyrimidin-5-yl)methanone] |
